Source: US20230310435A1, “HOST DEFENSE PROTEIN (HDP) MIMETICS FOR PROPHYLAXIS AND/OR TREATMENT OF INFLAMMATORY DISEASES OF THE GASTROINTESTINAL TRACT” (priority 2015, published 2023)
“And” between values parts separate entries of the source, which are not always exact repeats. Equal values may be shown once. Where a name gives a salt, the structure may show the parent alone. Read-outs that look alike come from different tables or passages of the source.

Tests used:
[1] = molecular target: human PDE4B2 (Homo sapiens, UniProt Q07343); experiment: PDE-Glo phosphodiesterase assay, PDE4; format: biochemical; conditions: 8 ng PDE4B, 1 μM cAMP substrate, 15 min pre-incubation; read-out: IC50, inhibition of PDE4
Protocol: Method for FIG. 1. […] The compounds and PDE4B (BPS Biosciences, San Diego, CA) were mixed and pre-incubated at room temperature for 15 minutes. Substrate was added and the reaction was incubated for 7 minutes at room temperature. Data are presented as luminescence units (RLU).
Method for FIG. 2. Phosphodiesterase inhibition assays of PDE4 were performed, using PMX-60056. The PDE-Glo phosphodiesterase assay (Promega, Madison, WI, USA Catalog No. V1361) was performed using 8 ng of PDE4B (BPS Biosciences, San Diego, CA). […] The compounds and PDE4B were mixed and pre-incubated at room temperature for 15 minutes. Substrate was added and the reaction was incubated for 7 minutes at room temperature. Data are presented as luminescence units (RLU).
Phosphodiesterase type 4 (PDE4) is predominant phosphodiesterase expressed in neutrophils, T cells and macrophages. PDE inhibitors show broad spectrum of anti-inflammatory effects in almost all inflammatory cells. PDE4 inhibitors, block the degradative action of PDE4 on cAMP, thereby increasing intracellular levels of cAMP levels which mediate phosphorylation of protein kinases. […] Data are presented as luminescence units (RLU).
The PDE-Glo phosphodiesterase assay was performed according to the Method described for FIG. 2, using 8 ng of PDE4B, 1 μM cAMP substrate PMX-60056. Data are presented as luminescence units (RLU). […]

[2] = test system: LPS-induced MCP-1 release, NR8383 cells; experiment: LPS-induced MCP-1 release in NR8383 rat macrophages (ELISA); format: cell-based
Protocol: Method for FIG. 7. […] After 8 hours, supernatants were collected for MCP-1 measurement by ELISA. MCP-1 was measured using an immunoassay kit according to manufacturer's instructions (Thermo Scientific, Rockford. IL).
Method for FIG. 8. MCP-1 assays were performed using PMX-60056. Rat macrophages (NR8383) were pretreated with […] with concentrations shown for 45 minutes, followed by 1 μg/ml LPS treatment from E. coli (Sigma, St. Louis, MO) for 8 hours. After 8 hours, supernatants were collected for MCP-1 measurement by ELISA. MCP-1 was measured using an immunoassay kit according to manufacturer's instructions (Thermo Scientific, Rockford, IL).
The MCP-1 inhibition assay was performed according to the Method described for FIG. 7.
The MCP-1 inhibition assay was performed according to the Method described for FIG. 8.
(§1) PDE4 and PDE3 inhibition results in subsequent down-regulation of pro-inflammatory cytokines/chemokines and its regulators, and experiments were conducted to confirm such down-regulation by brilacidin in ex vivo cell-based assays. In these assays, cells were exposed to brilacidin 45 minutes before an 8-hour lipopolysaccharide (LPS) stimulation in the presence of brilacidin; cytokine/enzyme concentrations were determined by ELISA using a standard immunoassay kit.

[3] = test system: LPS-induced MMP-9 release, NR8383 cells; experiment: LPS-induced MMP-9 release in NR8383 rat macrophages (ELISA); format: cell-based
Protocol: Method for FIG. 9. […] After 8 hours, supernatants were collected for MMP9 measurement by ELISA using immunoassay kit (R&D Systems, Minneapolis, MN) according to manufacturer's instructions.
The MMP-9 inhibition assay was performed according to the Method described for FIG. 9.
as §1

[4] = Plasma pharmacokinetics after IV or PO administration (Study 16009-12001); format: in vivo, male Balb/c mice; conditions: male mice; for Cmax: read-out: Cmax (peak concentration)
Excerpt: Method for FIG. 11. […] The test article, PMX-30063, was corrected for salt form but no adjustment was made for purity. […] The resulting formulation was clear colorless solution (pH 7) and was stored at room temperature until administered. The formulated solution was clear and colorless until dosing was completed.
A total of 60 male Balb/c mice, approximately 4-7 weeks of age at receipt with body weight of 18.0 g to 21.9 g were used in this study.
Three mice in each group were used for blood at each time point at post-dose at 5 minutes, 15 minutes, 30 minutes, 1, 2, 4, 8, and 24 hours for Groups 1-2. Blood samples (at least 300 μL/sample) were collected via cardiac puncture after euthanasia by carbon dioxide inhalation at appropriate time points. Samples were placed in tubes containing K2-EDTA, and then centrifuged at approximately 8,000 rpm for 6 minutes at 4° C. and the resulting plasma were separated and stored frozen at approximately −80° C.
The pharmacokinetic (PK) analysis were conducted by Medicilon Preclinical Research (Shanghai) LLC. The PK parameters were determined by the Study Director for the test article from mean concentration-time data in the test species. A non-compartmental module of WinNonlin™ Professional 5.2 was used to calculate parameters. Any BLQs (LLOQ=2.5 ng/mL for plasma and LLOQ=500 ng/g for small intestine) were replaced with a value of “0”, and the mean value and its standard deviation (SD) are calculated with these replaced values.
Plasma samples (50 μL) were transferred to centrifuge tube, then 250 μL IS solution (50 ng/mL Carvedilol) was added to it. After vortexing for 1 minute and centrifuging for 5 minutes at 15,000 rpm, 100 μL aliquots of supernatant were transferred to glass autosampler vials.

human PDE4B2, sequence (Q07343 1-564 isoform Q07343-2): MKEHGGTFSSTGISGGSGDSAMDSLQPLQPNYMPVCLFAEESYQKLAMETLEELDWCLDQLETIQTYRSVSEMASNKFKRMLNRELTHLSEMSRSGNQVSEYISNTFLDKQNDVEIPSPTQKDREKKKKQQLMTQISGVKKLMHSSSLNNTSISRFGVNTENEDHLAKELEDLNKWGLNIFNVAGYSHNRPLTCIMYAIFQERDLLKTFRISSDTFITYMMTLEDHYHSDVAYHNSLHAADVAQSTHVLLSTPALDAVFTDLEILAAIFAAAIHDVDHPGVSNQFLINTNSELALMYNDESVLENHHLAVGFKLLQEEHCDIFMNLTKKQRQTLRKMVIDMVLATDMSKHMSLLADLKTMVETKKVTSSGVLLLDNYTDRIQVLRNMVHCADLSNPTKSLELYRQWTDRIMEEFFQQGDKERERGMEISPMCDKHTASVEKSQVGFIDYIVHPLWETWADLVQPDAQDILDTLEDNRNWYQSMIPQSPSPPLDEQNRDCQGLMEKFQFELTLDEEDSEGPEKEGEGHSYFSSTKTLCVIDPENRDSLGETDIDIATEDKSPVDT

SMILES: N=C(N)NCCCCC(=O)Nc1cc(C(F)(F)F)cc(NC(=O)c2cc(C(=O)Nc3cc(C(F)(F)F)cc(NC(=O)CCCCNC(=N)N)c3O[C@@H]3CCNC3)ncn2)c1O[C@@H]1CCNC1 [PMX-30063, N^4,N^6-bis(2-((R)-pyrrolidin-3-yloxy)-3-((4-carbamoylbutyl)guanidine)-5-(trifluoromethyl)phenyl)pyrimidine-4,6-dicarboxamide tetrahydrochloride salt]
- IC50 [1]: ~3000 nM and 3000 nM
- effect on MCP-1 induction after LPS stimulation (in words) ([2]; NR8383, 45 min pretreatment, LPS 1 μg/ml 8 h): strong inhibition
- IC50 ([2]; Rattus norvegicus, Macrophage, NR8383 cells, ELISA, 45 min pretreatment, 8-hour LPS, read-out: IC50, inhibition of LPS-induced MCP-1 release): 750 nM
- decrease in MCP-1 levels ([2]; at 0.5 μM, NR8383, LPS 1 μg/ml 8 h): ≥ 25%
- IC50 ([3]; Rattus norvegicus, Macrophage, NR8383 cells, ELISA, 45 min pretreatment, 8-hour LPS, read-out: IC50, inhibition of LPS-induced MMP-9 release): 2300 nM
- decrease in MMP-9 levels ([3]; at 12.5 μM, NR8383, LPS 1 μg/ml 8 h): 50%
- AUC(0-inf) ([4]; Balb/c, mouse, IV 5 mg/kg): 97800 ng·h/mL
- AUC(0-t) ([4]; Balb/c, mouse, IV 5 mg/kg): 97700 ng·h/mL
- Tmax ([4]; Balb/c, mouse, IV 5 mg/kg): 0.083 h
- clearance ([4]; Balb/c, mouse, IV 5 mg/kg): 0.852 mL/min/kg
- half-life ([4]; Balb/c, mouse, IV 5 mg/kg): 2.76 h
- Cmax ([4]; Balb/c, mouse, IV 5 mg/kg): 48400 ng/mL
- Vd ([4]; Balb/c, mouse, IV 5 mg/kg, read-out: Vz): 0.204 L/kg
- AUC(0-inf) ([4]; Balb/c, mouse, PO 10 mg/kg): 113 ng·h/mL
- AUC(0-t) ([4]; Balb/c, mouse, PO 10 mg/kg): 111 ng·h/mL
- Tmax ([4]; Balb/c, mouse, PO 10 mg/kg): 2 h
- half-life ([4]; Balb/c, mouse, PO 10 mg/kg): 1.26 h
- Cmax ([4]; Balb/c, mouse, PO 10 mg/kg): 33.7 ± 8.56 ng/mL
- MRT(0-∞) ([4]; IV 5 mg/kg): 2.86 H
- F* ([4]; PO 10 mg/kg vs IV 5 mg/kg): 0.0579%
- MRT(0-∞) ([4]; PO 10 mg/kg): 2.68 H
